In a melting point compilation (Tetko et al.; mined from patent text by program, amines drawn as free bases though some values may be those of a salt) one finds melting point data, which are given here for 89 molecules.

As a reminder, the melting point is the temperature, or range, at which the solid turns liquid.

The structures appear in SMILES notation.

The molecule `NC(=O)c1ccc(-c2ccc(C(CC3CCOCC3)c3ccc(S(=O)(=O)C4CC4)cc3)[nH]2)nc1` (centres undefined) gave a melting point of 136 to 138 °C.

On to `COc1cc2c(cc1OC)C(Oc1ccccc1C#N)CN(C)C2` (centres undefined), for which the melting point was 147 to 148 °C. With `CCCCCCCCCCCCCCCC(=O)OCCCN(C)C`, the melting point is 49 to 50 °C. The value for `CCCCCCCCCC(C)NC(=O)C=C(C)c1cccc(NC(=O)CCCC(=O)O)c1` (centres undefined) was 115 to 118 °C. With `CN(Cc1ccc(NC(=O)C2=Cc3cc(-c4ccc(Cl)cc4)ccc3S(=O)(=O)CC2)cc1)C1CCC(=O)CC1`, the melting point fell in the range of 197 to 200 °C. In turn, `CCOc1cc(-c2cc(C(F)(F)F)n3ncc(-c4ccncc4)c3n2)ccc1C(F)(F)F` yielded a melting point of 251 °C.

In turn, `CN(c1cccc(C=C2c3ccccc3CCc3ccccc32)c1)S(C)(=O)=O` returned a melting point of 124 °C. In turn, `CN1Cc2cc(C(O)CN3CCC(COc4ccccc4)CC3)ccc2NC1=O` (centres undefined) yielded a melting point of 205 °C. The value for `CC(C)C[C@@H](C=O)NC(=O)[C@H](Cc1c[nH]cn1)NC(=O)[C@H](Cc1c[nH]c2ccccc12)NC(=O)OCc1ccccc1` was 109 to 110 °C. Molecule `O=C(Nc1ccc([N+](=O)[O-])cc1Cl)OCCCl` came in with a melting point of 128 to 130 °C. `ClC(c1ccccc1)(c1ccccc1)c1ccncc1`: the melting point was 84.5 to 86.5 °C. `COc1ccc2c(c1OC)CCCC2=O` came in with a melting point of 103 to 104 °C.

Molecule `OC[C@@H]1CNCc2cc3ccc(C(F)(F)F)cc3n21` gave a melting point of 126 to 127 °C. With `Cc1ccc(-n2c(-c3ccc(Br)cc3)nc3c4ccccc4c4ccccc4c32)cc1`, the melting point was found to be 236 °C. For `Cc1cccc(CSCCNC(=O)c2c(Cl)cccc2Cl)c1`, the melting point was 56 to 57 °C. `CNc1cc(N2CCN(C(=O)N3CCN(S(=O)(=O)c4ccc(C(F)(F)F)cc4)CC3)CC2)ncn1`: the melting point lay in the range of 230 to 231 °C. As to `CC(C)n1cc(C(=O)O)c2ccc(C(F)(F)F)cc21`, the melting point lay within 177 to 178 °C.

The molecule `CCOCc1cc(N)ccc1N1C(=O)c2ccc(Cl)cc2C1=O` gave a melting point of 154 to 156 °C. In turn, `COC(=O)Nc1cc(C(C)(C)C)[nH]n1` showed a melting point of 177 °C.

Molecule `Clc1cccc2c1nnn2C1CCCCC1` gave a melting point of 141 to 144 °C. On to `CN(C)C(=O)c1cccc(CN2C(=O)C3(COc4cc5c(cc43)OCCO5)c3ccccc32)c1` (centres undefined), for which the melting point lay in the range of 90 to 96 °C. The molecule `COC(=O)c1ccc(Cn2c(=O)c3cc(C(=O)NCc4cccc(OC)c4)sc3n(C)c2=O)cc1OC` gave a melting point of 200 to 203 °C.

As to `COCc1cccc(CC#N)c1[N+](=O)[O-]`, the melting point is 34 to 36 °C. Take `Cn1nc2ccccc2c1C(=O)NC1CCN(CCc2ccc(F)cc2)C1` (centres undefined): the melting point fell in the range of 117 to 119 °C. `COC(=O)C1=C(O)C(OC)(OC)C(O)=C(C(=O)OC)C1` came in with a melting point of 143 to 144 °C. To `O=c1cc(-c2ccncn2)nc2n1CCOCC2Br` (racemic) belongs 176 to 178 °C; to `COCc1oc(C)cc(=O)c1OCc1ccccc1`, 30 to 32 °C; to `CCCCCCCCc1ccc(CCC(CO)(CO)NC(C)=O)s1`, 58 to 60 °C. In turn, `CCOCN1N=NC(=S)C1C` (centres undefined) registered a melting point of 137 to 138 °C. Consider `Cc1ccc2oc(C=Cc3ccc(C(=O)O)cc3)cc(=O)c2c1`, for which the melting point lay in the range of 308 to 312 °C.

`CS(=O)(=O)c1ccc(-c2oc3ccccc3c(=O)c2-c2cnccc2Cl)cc1` displayed a melting point of 232 to 233 °C. Molecule `COC(=O)N(c1cc(C)ccc1C(=O)c1ccc(F)cc1)C(C)C` displayed a melting point of 92 to 94 °C. The molecule `C[C@@H](O)CNC(=O)N1CC(c2ccc(C(F)(F)F)cc2)C1` returned a melting point of 107 to 108 °C.

As to `CNc1c(F)cc2c(=O)c(C(=O)O)cn(-c3ccc(F)c(O)c3)c2c1C`, the melting point is above 280 °C. In the case of `CCOC(=O)N1c2cc(OC)c(OC)cc2[C@H](NC(=O)Cc2cc(C(F)(F)F)cc(C(F)(F)F)c2)C[C@@H]1C` (relative stereo), the melting point lay in the range of 157 to 159 °C.

With `CCCCn1c(=O)c2c(nc(C)n2S(=O)(=O)CCCCl)n(CCCC)c1=O`, the melting point is 76 to 78 °C. To `Cc1cc2ccccc2nc1NN` belongs 128 °C. Consider `C=C(C)C(=O)Oc1ccc(S(=O)(=O)NCCCC)cc1`, for which the melting point lay in the range of 59 to 60 °C.

Regarding `Cc1ccc(C(=O)c2ccccc2F)cc1`, the melting point is 73 to 74 °C. Molecule `Cc1cc(N)nc(CCc2nc3cc(-c4ccc(C(F)(F)F)cc4)cnc3[nH]2)c1` yielded a melting point of 170 °C.

On to `Cn1ncc(C(=O)c2ccc(Cl)cc2Cl)c1OCc1ccc([N+](=O)[O-])cc1`, for which the melting point is 116 to 118 °C. As for `CC1(C)CC(Nc2nc(NC3CC(C)(C)NC(C)(C)C3)nc(N(C3CC(C)(C)NC(C)(C)C3)C3CC(C)(C)NC(C)(C)C3)n2)CC(C)(C)N1`, the melting point lay within 235 to 243 °C. Turning to `Cc1nc(-c2cccnc2)sc1-c1ccnc(Nc2ccc(N3CCCC3)cc2)n1`, the melting point lay in the range of 212 to 214 °C.

In turn, `COc1ccc2cc(C(=O)CNC(=O)c3ccccc3)ccc2c1` yielded a melting point of 172 to 174 °C. The molecule `C[C@@H](Cn1ncc2ccc3oc(C(=O)OCc4ccccc4)cc3c21)NC(=O)OCc1ccccc1` gave a melting point of 140 to 141 °C. Take `Cc1ccc2nc(-c3cccnc3N)n(-c3ccc(CC(=O)c4ccccc4)cc3)c2n1`: the melting point was 194 to 196 °C. `COc1ccc(C)c(NC(=O)CC2C3CC4CC(C3)CC2C4)c1` (centres undefined) registered a melting point of 193 to 196 °C. `COc1ccc(CC(C)=O)cc1S(=O)(=O)N1CCSCC1`: the melting point lay within 118 to 122 °C. `O=C1c2ccccc2OC2=CCON12` had a melting point of 144 to 148 °C. Take `CC(=O)c1cc(C(C)(C)C)cc(C(=O)O)c1O`: the melting point was 159 to 161 °C. `CCCCC(=O)Nc1c(C)c(C)c2c(c1C)C(c1ccc(C(C)C)cc1)CO2` (centres undefined): the melting point was 128 to 129 °C. Turning to `CC(C)NC1=NS(=O)(=O)c2cc(Cl)cc(N)c2N1`, the melting point was above 230 °C. `CC(C)(C)c1ccc2c(c1)C=C(C(=O)O)C(C(F)(F)F)S2` (centres undefined) returned a melting point of 184 to 185 °C. In turn, `CC(C)(Cc1ccc(S(=O)C(F)(F)F)cc1)C(O)c1cncnc1` (centres undefined) returned a melting point of 122 °C. Molecule `O=C1CC=C(c2c[nH]c3ccc([N+](=O)[O-])cc23)CC1` had a melting point of 210 to 212 °C. Turning to `O=C(CCCCN1CCCCC1)c1ccc2c(c1)Sc1cc(C(=O)CCCCN3CCCCC3)ccc1O2`, the melting point is 128 to 130 °C. Take `CN(C(=O)c1ccc(Cl)c(Cl)c1)c1ccc(Cl)cc1CCC(=O)O`: the melting point lay in the range of 159 to 160 °C.

`CCc1cc2c(c(CC)n1)CCC(=O)N2` displayed a melting point of 90 to 94 °C. To `O=C1NC(=O)C(Cc2ccc(OCCOc3ccccc3)cc2)S1` (centres undefined) belongs 133 °C.

Molecule `CCOCc1nc2c(N)nc3ccccc3c2n1CC1(NC(=O)OCC)CCCCC1` showed a melting point of 95 to 100 °C. `O=C(O)CNC(=O)C(Cc1ccccc1)P(=O)(O)O` (centres undefined) registered a melting point of 250 °C. In turn, `COc1ccc(Nc2cccc3c2C(=O)N(C2CCC(=O)NC2=O)C3=O)cc1OC` (centres undefined) had a melting point of 215 to 217 °C. Consider `CN(C)CCCCNC(=O)c1cccc(-c2nnc(CSCCOc3ccccc3)o2)c1`, for which the melting point lay in the range of 38 to 42 °C. `CCOc1ccc2c(c1)n(-c1ccccn1)c(=O)n2S(=O)(=O)c1ccc(NC(=O)N(CC)CC)cc1OC` gave a melting point of 171 °C.

`Nc1nc(-c2ccccc2)c(-c2ccnc(Nc3cccc(I)c3)n2)s1` registered a melting point of 243 to 244 °C. In turn, `COC(=O)CCCC(=O)Nc1cccc(Br)n1` came in with a melting point of 128 to 131 °C.

In the case of `C#CCOC(=O)c1ccccc1C1=NC(=O)C(C)(C(C)C)N1` (centres undefined), the melting point is 131 to 144 °C.

`Cc1cc(F)ccc1-c1ccc(S(=O)(=O)N2c3ccccc3CC2C(=O)NCc2ccccc2N)cc1` (centres undefined) gave a melting point of 92 to 96 °C. `COc1cccc(-c2ccc3c(c2)C(C)(C)OC(=S)N3)c1`: the melting point lay within 142 to 143 °C. On to `CCC(=O)c1cc(Cl)c(OC)cc1OC`, for which the melting point came out at 115 °C. For the molecule `COCCOc1ccc(Nc2nc(Nc3cc4c(cc3OC)CCN(CC(=O)N(C)C)CC4)ncc2Cl)c(OC)c1`, the melting point fell in the range of 51 to 59 °C. `COc1ccc(C2=NOC(CN=C=S)C2)cc1` (centres undefined) returned a melting point of 92 to 94 °C.

In turn, `COC(=O)c1cncc(-c2ccc(OC)c(N)c2)c1` had a melting point of 98 to 99 °C. The value for `CCOC(=O)c1cc(C#N)c(C)nc1O` was 212 to 213 °C; that for `COC(=O)C(C)(Oc1cccc(Oc2c(Cl)cc(C(F)(F)F)cc2Cl)c1)[N+](=O)[O-]` (centres undefined) was 78 °C; that for `Cc1ncccc1COc1ccc2cc(Cn3cc(CCC(=O)O)c(-c4ccccc4)c3)ccc2c1` was 163 to 164 °C. The molecule `Cc1ccc2c(c1)[nH]c(=O)n2CCCN1CCN(C(c2ccccc2)c2ccccc2)CC1` gave a melting point of 178 °C. To `CCCC1COC(Cn2cncn2)(c2ccc(Oc3ccccc3)cc2)O1` (centres undefined) belongs 68.5 to 71 °C. To `COC(=O)C1=CCC(=C2CCc3nc4c(nc3C2=O)C(C)(C)CCC4(C)C)C=C1` belongs 149 to 151 °C; to `CCCOc1nc2sccc2c(=N)n1CCC`, 61 to 63 °C; to `CCOC(Nc1ccccc1)(OCC)c1ccnc(C(=O)c2ccc(C)cc2)c1`, 95 to 96 °C. To `O=C(O)Cc1c(C(=O)c2ccc(F)cc2)[nH]c2cc(Cl)ccc12` belongs 181 to 183 °C.

The molecule `CC(C)OC(=O)c1cc(O)cc2cc(-c3ccc(O)cc3)oc12` registered a melting point above 250 °C. The molecule `CCCCC(=O)NC(C(=O)OCc1ccccc1)C(C)C` (centres undefined) had a melting point of 118 to 127 °C. `COC(=O)N[C@H]1Cc2ccccc2C1=O` gave a melting point of 157 to 159 °C. On to `COc1cc(C(N)C(N)=O)c(F)cc1Cl` (centres undefined), for which the melting point is 162 °C. On to `CN(C(N)=O)C1c2ccccc2Oc2ccccc21`, for which the melting point fell in the range of 199 to 202 °C.

Molecule `C/C(=C\c1ccc(O)cc1)c1ccc2c(c1)OCC(C)(C)CO2` registered a melting point of 70 to 71 °C. In turn, `O=C(NCC(=O)N1CCC(=C2c3ccccc3C=Cc3ccccc32)CC1)OCc1ccccc1` returned a melting point of 142 to 144 °C.
